# Source: US9085576B2 (AMGEN INC., priority 2013, dated 2015)
# Counter-ions that a name gives are not always drawn. Like-named read-outs stand apart in the source and are kept apart here.
# Experiments:
# [1] = target: BACE (Homo sapiens (Human), UniProt P56817); assay: In vitro BACE cell-based assay (Aβ40 in conditioned medium, sandwich ELISA)
# [2] = target: Beta Secretase enzyme (BACE) (Homo sapiens (Human), UniProt P56817); assay: In vitro enzymatic BACE FRET assay; format: biochemical
# [3] = target: Cathepsin D (Cat D) (Homo sapiens (Human), UniProt P07339); assay: In vitro enzymatic Cathepsin D (Cat D) FRET assay; format: biochemical
# [4] = read-out: BACE1 Enzyme assay IC50
# Chain of Beta Secretase enzyme (BACE) (P56817 46-501): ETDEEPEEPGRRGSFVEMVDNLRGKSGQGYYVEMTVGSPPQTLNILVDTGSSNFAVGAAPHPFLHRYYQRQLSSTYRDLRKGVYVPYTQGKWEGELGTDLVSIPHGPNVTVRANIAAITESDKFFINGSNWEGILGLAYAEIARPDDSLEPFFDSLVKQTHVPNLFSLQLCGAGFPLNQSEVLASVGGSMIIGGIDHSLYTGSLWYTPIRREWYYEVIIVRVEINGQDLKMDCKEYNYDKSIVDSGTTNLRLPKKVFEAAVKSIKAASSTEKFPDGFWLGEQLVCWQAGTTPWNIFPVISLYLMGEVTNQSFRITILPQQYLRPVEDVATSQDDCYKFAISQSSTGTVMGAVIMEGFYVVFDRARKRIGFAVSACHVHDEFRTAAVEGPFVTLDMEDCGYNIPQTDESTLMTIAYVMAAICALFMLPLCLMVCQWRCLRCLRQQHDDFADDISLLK
# Chain of BACE (P56817 46-501, species assumed): as the sequence (P56817 46-501) above
# Chain of Cathepsin D (Cat D) (P07339 65-412, species assumed): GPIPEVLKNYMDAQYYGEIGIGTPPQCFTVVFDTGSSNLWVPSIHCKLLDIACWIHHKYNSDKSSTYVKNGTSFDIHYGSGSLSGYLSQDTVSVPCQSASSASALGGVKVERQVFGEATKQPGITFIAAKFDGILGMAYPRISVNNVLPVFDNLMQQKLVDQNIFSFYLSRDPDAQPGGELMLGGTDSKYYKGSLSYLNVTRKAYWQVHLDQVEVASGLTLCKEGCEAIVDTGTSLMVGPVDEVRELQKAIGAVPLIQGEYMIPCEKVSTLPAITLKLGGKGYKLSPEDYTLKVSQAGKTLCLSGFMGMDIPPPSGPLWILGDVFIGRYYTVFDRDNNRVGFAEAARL
Compound,IC50 [1] [µM],"IC50 [2, 4] [µM]",IC50 ([3]; read-out: CatD IC50) [µM],IC50 [2] [µM],IC50 [3] [µM]
"NC1=N[C@@](c2cc(NC(=O)[C@H]3CCCO3)ccc2F)(C(F)F)[C@H]2C[C@H]2O1 (mixture of isomers) [Example 244, (S,R)-N-(3-((1R,5S,6R)-3-amino-5-(difluoromethyl)-2-oxa-4-azabicyclo[4.1.0]hept-3-en-5-yl)-4-fluorophenyl) tetrahydrofuran-2-carboxamide]",1.98,5.37,319,–,–
"C[C@H](C(=O)Nc1ccc(F)c([C@@]2(C(F)F)N=C(N)O[C@@H]3C[C@@H]32)c1)c1ccc(Cl)cc1 (mixture of isomers) [Example 252, N-(3-((1R,5S,6R)-3-amino-5-(difluoromethyl)-2-oxa-4-azabicyclo[4.1.0]hept-3-en-5-yl)-4-fluorophenyl)-2-(4-chlorophenyl) propanamide]",> 15.6,> 40,270,–,–
"NC1=N[C@](CF)(c2cc(NC(=O)c3ccc(Cl)cn3)cc(F)c2F)[C@H]2C[C@H]2O1 [Example 142, N-(3-(((1R,S),(5S,R),(6R,S))-3-amino-5-(fluoromethyl)-2-oxa-4-azabicyclo[4.1.0]hept-3-en-5-yl)-4,5-difluorophenyl)-5-chloropicolinamide]",0.0263,–,–,–,–
"N#Cc1cnc2c(Nc3ccc(Cl)c([C@]4(C(F)F)N=C(N)O[C@H]5C[C@H]54)c3)ncc(F)c2c1 [Example 351, 8-((3-((1S,5R,6S)-3-amino-5-(difluoromethyl)-2-oxa-4-azabicyclo[4.1.0]hept-3-en-5-yl)-4-chlorophenyl)amino)-5-fluoro-1,7-naphthyridine-3-carbonitrile]",–,2.81,> 14.8,–,–
"NC1=N[C@@](c2cc(Nc3coc4cc(Cl)cnc34)ccc2F)(C(F)F)[C@H]2C[C@H]2O1 [Example 385, N-(3-((1R,5S,6R)-3-amino-5-(difluoromethyl)-2-oxa-4-azabicyclo[4.1.0]hept-3-en-5-yl)-4-fluorophenyl)-6-chlorofuro[3,2-b]pyridin-3-amine]",–,–,–,0.253,153
"CC#Cc1cncc(-c2ccc(F)c([C@@]3(CF)N=C(N)O[C@@H]4C[C@@H]43)c2)c1 [Example 431, (1(S,R),5(R,S),6(S,R))-5-(2-fluoro-5-(5-(prop-1-yn-1-yl)pyridin-3-yl)phenyl)-5-(fluoromethyl)-2-oxa-4-azabicyclo[4.1.0]hept-3-en-3-amine]",–,4.69,91.6,–,–
"CC#Cc1cncc(-c2cc([C@]3(CF)N=C(N)O[C@H]4C[C@H]43)c(F)cc2CO)c1 [Example 432, (4-(((1S,R),(5R,S),(6S,R))-3-amino-5-(fluoromethyl)-2-oxa-4-azabicyclo[4.1.0]hept-3-en-5-yl)-5-fluoro-2-(5-(prop-1-yn-1-yl)pyridin-3-yl)phenyl)methanol]",–,33.1,178,–,–
NC1=N[C@@](c2cc(-n3cc(C#CC4CC4)cn3)ccc2F)(C(F)F)[C@H]2C[C@H]2O1 [Example 435],–,8.62,316,–,–
"(R)-8-((3-((1R,5S,6R)-3-amino-5-(difluoromethyl)-2-oxa-4-azabicyclo[4.1.0]hept-3-en-5-yl)-4-fluorophenyl)amino)-5,6,7,8-tetrahydroquinoline-3-carbonitrile and (S)-8-((3-((1R,5S,6R)-3-amino-5-(difluoromethyl)-2-oxa-4-azabicyclo[4.1.0]hept-3-en-5-yl)-4-fluorophenyl)amino)-5,6,7,8-tetrahydroquinoline-3-carbonitrile [Example 403]",–,2.85,469,–,–
"N-(3-((1R,5S,6R)-3- amino-5- (difluoromethyl)-2-oxa- 4-azabicyclo[4.1.0]hept- 3-en-5-yl)-4-fluoro-5- methylphenyl)-4-chloro- 2-(fluoromethyl) benzamide [Example 444]",–,0.0105,171,–,–

# More lines, in order of falling IC50 [2, 4], values ahead:
IC50 [1] [µM],"IC50 [2, 4] [µM]",IC50 ([3]; read-out: CatD IC50) [µM],Compound,IC50 [2] [µM],IC50 [3] [µM]
2.48,2.88,1340,"C[C@H](F)c1nc(C(=O)Nc2ccc(F)c([C@@]3(C(F)F)N=C(N)O[C@@H]4C[C@@H]43)c2)co1 (mixture of isomers) [Example 175, N-(3-((1R,5S,6R)-3-amino-5-(difluoromethyl)-2-oxa-4-azabicyclo[4.1.0]hept-3-en-5-yl)-4-fluorophenyl)-2-(1-fluoroethyl)oxazole-4-carboxamide 2,2,2-trifluoroacetate]",–,–
0.184,1.99,–,"COc1cnc(C(=O)Nc2ccc(F)c([C@@]3(C)N=C(N)O[C@@H]4C[C@@H]43)n2)cn1 [Example 322, N-(6-((1R,5S,6R)-3-amino-5-methyl-2-oxa-4-azabicyclo[4.1.0]hept-3-en-5-yl)-5-fluoropyridin-2-yl)-5-methoxypyrazine-2-carboxamide]",–,–
–,1.24,196,"NC1=N[C@@](c2cc(-c3nc4ccc(Cl)cc4o3)ccc2F)(C(F)F)[C@H]2C[C@H]2O1 [Example 426, (1R,5S,6R)-5-(5-(6-chlorobenzo[d]oxazol-2-yl)-2-fluorophenyl)-5-(difluoromethyl)-2-oxa-4-azabicyclo[4.1.0]hept-3-en-3-amine]",–,–
0.318,0.976,–,"N#Cc1cnc2c(c1)CC[C@@H]2Nc1ccc(F)c([C@@]2(C(F)F)N=C(N)O[C@@H]3C[C@@H]32)c1 (single isomer, unassigned) [Example 402]",–,–
–,0.613,240,"NC1=N[C@](c2cc(-c3nc4ccc(Cl)cc4o3)ccc2F)(C(F)F)[C@@H]2C[C@@H]2O1 [Example 425, (1S,5R,6S)-5-(5-(6-chlorobenzo[d]oxazol-2-yl)-2-fluorophenyl)-5-(difluoromethyl)-2-oxa-4-azabicyclo[4.1.0]hept-3-en-3-amine]",–,–
–,0.473,490,"CNc1cnc(C(=O)Nc2ccc(F)c([C@@]3(C(F)F)N=C(N)O[C@@H]4C[C@@H]43)c2)nc1 [Example 439, N-(3-((1R,5S,6R)-3-amino-5-(difluoromethyl)-2-oxa-4-azabicyclo[4.1.0]hept-3-en-5-yl)-4-fluorophenyl)-5-(methylamino)pyrimidine-2-carboxamide dihydrochloride]",–,–
0.0074,0.183,–,"COc1cc(Cl)cnc1C(=O)Nc1ccc(Cl)c([C@@]2(CF)N=C(N)O[C@@H]3C[C@@H]32)c1 [Example 297, N-(3-((1R,5S,6R)-3-amino-5-(fluoromethyl)-2-oxa-4-azabicyclo[4.1.0]hept-3-en-5-yl)-4-chlorophenyl)-5-chloro-3-methoxypicolinamide]",–,–
0.0575,0.108,–,"N#Cc1cnc2c(c1)CC[C@H]2Nc1ccc(F)c([C@@]2(C(F)F)N=C(N)O[C@@H]3C[C@@H]32)c1 [Example 401, (R)-7-((3-((1R,5S,6R)-3-amino-5-(difluoromethyl)-2-oxa-4-azabicyclo[4.1.0]hept-3-en-5-yl)-4-fluorophenyl)amino)-6,7-dihydro-5H-cyclopenta[b]pyridine-3-carbonitrile]",–,–
0.0765,0.0908,–,Cc1cc(OC(F)F)cnc1C(=O)Nc1ccc(Cl)c(C2(C(F)F)N=C(N)O[C@@H]3C[C@@H]32)c1 (stereo partly drawn) [Example 209],–,–
0.0179,0.0638,–,"Cc1cc(C(F)F)cnc1C(=O)Nc1ccc(F)c([C@@]2(CF)N=C(N)O[C@@H]3C[C@@H]32)c1 [Example 201, N-(3-((1R,5S,6R)-3-amino-5-(fluoromethyl)-2-oxa-4-azabicyclo[4.1.0]hept-3-en-5-yl)-4-fluorophenyl)-5-(difluoromethyl)-3-methylpicolinamide]",–,–
